According to publication PMC4858680, “A platinum-based hybrid drug design approach to circumvent acquired resistance to molecular targeted tyrosine kinase inhibitors” (Scientific Reports, 2016):
Changes are numbered by the printed parent chain. Like-named read-outs stand apart in the source and are kept apart here.

Tests used:
FGFR2 = FGFR2 (Homo sapiens, UniProt P21802); conditions: 10 μM
CSK [1] = biological target: T1, CSK (Homo sapiens, UniProt P41240); conditions: 10 μM
HCK = biological target: T2, HCK (Homo sapiens, UniProt P08631); assay type: binding; conditions: 10 μM
T2 construct: purchased DiscoveRx KINOMEscan
T2 sequence (P08631 whole entry): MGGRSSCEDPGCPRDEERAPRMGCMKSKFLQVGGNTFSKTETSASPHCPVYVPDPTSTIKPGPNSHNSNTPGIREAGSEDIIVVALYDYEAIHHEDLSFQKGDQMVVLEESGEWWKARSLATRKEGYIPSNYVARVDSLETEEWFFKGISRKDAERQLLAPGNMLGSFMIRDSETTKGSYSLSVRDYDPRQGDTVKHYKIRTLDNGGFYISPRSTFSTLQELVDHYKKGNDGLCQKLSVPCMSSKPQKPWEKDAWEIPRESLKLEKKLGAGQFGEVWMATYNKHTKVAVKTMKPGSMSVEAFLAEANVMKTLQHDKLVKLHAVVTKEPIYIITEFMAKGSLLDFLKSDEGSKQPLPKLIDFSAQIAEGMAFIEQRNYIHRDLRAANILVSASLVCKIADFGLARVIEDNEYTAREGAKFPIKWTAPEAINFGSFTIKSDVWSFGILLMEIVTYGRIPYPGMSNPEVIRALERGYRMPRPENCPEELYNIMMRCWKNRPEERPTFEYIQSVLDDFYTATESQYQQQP

FLT1 = FLT1 (Homo sapiens, UniProt P17948); conditions: 10 μM
FLT3(N841I) = biological target: T3, FLT3(N841I) (Homo sapiens, UniProt P36888, N841I)
T3 sequence (P36888 27-993 N841I): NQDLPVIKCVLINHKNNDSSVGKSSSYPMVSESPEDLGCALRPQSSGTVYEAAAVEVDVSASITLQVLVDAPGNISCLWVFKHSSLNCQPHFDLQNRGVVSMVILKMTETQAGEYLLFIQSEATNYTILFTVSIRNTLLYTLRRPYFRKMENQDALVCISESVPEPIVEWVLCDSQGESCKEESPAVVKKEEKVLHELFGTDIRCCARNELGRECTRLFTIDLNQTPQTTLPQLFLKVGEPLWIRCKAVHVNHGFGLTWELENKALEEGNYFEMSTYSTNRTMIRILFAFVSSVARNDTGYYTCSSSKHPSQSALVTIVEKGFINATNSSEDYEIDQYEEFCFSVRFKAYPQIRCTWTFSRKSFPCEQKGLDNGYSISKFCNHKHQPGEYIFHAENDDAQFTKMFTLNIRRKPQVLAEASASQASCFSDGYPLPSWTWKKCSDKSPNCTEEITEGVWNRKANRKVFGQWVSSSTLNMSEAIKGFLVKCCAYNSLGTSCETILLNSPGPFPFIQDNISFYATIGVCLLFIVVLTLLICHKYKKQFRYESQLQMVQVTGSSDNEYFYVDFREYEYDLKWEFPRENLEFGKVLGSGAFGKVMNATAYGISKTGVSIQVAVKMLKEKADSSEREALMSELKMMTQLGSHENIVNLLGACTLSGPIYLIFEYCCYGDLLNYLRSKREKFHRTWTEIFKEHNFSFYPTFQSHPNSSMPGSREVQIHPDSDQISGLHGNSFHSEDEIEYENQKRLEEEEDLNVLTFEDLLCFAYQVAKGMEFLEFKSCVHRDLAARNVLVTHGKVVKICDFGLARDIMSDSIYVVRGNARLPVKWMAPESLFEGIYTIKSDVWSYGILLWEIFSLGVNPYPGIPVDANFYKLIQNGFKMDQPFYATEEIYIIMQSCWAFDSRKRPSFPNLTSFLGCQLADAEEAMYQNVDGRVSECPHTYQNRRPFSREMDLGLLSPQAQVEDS

FGFR3 = FGFR3 (Homo sapiens, UniProt P22607); conditions: 10 μM
TIE2 = TIE2 (Homo sapiens, UniProt Q02763); conditions: 10 μM
Sequence of TIE2 (Q02763 23-1124): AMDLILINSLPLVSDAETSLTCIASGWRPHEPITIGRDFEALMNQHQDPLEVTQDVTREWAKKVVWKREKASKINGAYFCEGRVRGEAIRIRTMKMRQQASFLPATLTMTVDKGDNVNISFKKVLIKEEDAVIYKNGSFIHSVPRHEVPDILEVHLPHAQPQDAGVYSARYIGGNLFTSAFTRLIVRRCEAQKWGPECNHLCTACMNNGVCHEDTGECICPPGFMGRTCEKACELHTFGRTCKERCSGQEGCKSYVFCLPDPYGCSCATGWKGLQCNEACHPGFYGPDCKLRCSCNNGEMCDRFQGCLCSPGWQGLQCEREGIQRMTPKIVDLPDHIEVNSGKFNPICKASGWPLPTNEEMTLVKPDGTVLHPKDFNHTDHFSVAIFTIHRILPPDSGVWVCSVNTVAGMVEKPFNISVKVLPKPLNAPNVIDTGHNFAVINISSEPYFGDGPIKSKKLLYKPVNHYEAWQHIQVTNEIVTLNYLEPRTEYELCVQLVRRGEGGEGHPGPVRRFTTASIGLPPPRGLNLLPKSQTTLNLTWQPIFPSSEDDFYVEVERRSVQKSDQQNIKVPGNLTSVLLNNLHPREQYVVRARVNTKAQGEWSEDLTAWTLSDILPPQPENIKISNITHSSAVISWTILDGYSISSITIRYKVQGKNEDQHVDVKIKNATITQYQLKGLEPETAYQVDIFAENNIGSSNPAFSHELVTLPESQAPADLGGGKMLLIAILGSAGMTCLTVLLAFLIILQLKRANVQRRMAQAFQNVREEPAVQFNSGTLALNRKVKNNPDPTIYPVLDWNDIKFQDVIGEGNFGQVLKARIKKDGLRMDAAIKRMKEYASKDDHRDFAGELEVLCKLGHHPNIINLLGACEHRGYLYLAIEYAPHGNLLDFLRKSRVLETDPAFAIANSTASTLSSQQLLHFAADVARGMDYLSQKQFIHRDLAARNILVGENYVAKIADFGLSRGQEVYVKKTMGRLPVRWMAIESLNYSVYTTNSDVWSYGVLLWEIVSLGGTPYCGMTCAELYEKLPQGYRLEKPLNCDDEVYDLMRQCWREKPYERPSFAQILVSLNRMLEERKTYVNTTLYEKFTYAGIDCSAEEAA

EPHA5 = EPHA5 (Homo sapiens, UniProt P54756); conditions: 10 μM
Sequence of EPHA5 (P54756 25-1037): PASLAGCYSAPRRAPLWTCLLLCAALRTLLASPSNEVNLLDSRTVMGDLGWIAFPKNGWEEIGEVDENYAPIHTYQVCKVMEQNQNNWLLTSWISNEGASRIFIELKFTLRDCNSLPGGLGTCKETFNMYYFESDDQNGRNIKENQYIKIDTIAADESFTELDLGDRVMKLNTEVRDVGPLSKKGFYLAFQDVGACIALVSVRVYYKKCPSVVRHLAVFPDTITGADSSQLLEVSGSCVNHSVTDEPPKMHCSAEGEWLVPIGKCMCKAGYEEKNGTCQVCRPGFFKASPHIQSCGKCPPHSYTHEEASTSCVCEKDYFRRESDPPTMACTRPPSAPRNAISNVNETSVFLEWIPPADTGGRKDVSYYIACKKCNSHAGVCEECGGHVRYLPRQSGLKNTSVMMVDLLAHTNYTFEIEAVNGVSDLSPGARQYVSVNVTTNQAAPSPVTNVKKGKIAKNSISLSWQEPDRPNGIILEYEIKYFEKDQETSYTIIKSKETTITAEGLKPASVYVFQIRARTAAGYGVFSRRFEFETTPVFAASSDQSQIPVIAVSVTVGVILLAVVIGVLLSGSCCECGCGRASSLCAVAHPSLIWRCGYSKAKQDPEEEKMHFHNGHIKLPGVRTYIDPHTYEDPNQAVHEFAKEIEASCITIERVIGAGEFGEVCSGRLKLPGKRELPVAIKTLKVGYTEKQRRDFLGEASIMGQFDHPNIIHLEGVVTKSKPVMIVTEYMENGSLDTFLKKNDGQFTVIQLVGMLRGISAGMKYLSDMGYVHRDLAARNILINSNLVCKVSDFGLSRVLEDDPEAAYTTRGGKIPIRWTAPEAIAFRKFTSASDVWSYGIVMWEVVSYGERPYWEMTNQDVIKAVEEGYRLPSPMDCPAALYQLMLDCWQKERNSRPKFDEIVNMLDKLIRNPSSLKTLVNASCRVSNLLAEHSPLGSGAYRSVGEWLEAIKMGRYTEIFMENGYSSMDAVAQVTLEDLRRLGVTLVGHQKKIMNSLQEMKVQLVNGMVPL

ERBB2 = biological target: T4, ERBB2 (Homo sapiens, UniProt P04626); assay type: binding; conditions: for remaining binding at 10 µM: read-out: Percent control
T4 construct: purchased DiscoveRx KINOMEscan

RET = RET (Homo sapiens, UniProt P07949); conditions: 10 μM
Sequence of RET (P07949 29-1114): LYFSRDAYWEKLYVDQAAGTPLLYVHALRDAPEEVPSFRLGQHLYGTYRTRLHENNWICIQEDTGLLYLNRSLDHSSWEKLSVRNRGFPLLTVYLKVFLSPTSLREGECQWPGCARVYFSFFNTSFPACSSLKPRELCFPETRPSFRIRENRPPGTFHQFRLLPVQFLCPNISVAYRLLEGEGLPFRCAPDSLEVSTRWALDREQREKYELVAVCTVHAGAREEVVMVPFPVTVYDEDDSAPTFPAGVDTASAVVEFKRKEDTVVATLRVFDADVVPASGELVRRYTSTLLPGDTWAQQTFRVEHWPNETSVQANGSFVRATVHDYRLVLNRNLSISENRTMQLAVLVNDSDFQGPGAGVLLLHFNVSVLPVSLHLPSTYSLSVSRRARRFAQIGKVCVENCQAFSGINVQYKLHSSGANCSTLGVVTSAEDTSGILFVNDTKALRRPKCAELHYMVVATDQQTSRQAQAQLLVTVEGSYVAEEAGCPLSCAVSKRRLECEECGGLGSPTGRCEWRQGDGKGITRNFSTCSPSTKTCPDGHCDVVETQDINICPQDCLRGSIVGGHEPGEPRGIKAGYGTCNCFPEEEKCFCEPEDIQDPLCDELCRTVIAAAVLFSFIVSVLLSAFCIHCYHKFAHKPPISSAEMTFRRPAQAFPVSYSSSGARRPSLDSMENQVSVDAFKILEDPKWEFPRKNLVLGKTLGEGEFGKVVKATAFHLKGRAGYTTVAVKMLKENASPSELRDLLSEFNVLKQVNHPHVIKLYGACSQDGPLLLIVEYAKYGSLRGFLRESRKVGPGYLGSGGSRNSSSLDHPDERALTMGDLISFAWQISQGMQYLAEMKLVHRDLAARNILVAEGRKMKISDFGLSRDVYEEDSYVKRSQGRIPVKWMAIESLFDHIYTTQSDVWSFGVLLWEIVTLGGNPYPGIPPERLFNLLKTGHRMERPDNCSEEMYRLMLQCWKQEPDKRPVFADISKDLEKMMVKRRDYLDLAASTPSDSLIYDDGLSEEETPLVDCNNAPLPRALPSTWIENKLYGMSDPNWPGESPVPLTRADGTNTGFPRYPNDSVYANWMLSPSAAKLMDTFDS

FLT3(R834Q) = biological target: T5, FLT3(R834Q) (Homo sapiens, UniProt P36888, R834Q)
T5 sequence (P36888 27-993 R834Q): T3 sequence (P36888 27-993 N841I) with R808Q, I815N

FLT4 = FLT4 (Homo sapiens, UniProt P35916); conditions: 10 μM
KIT(L576P) = KIT(L576P) (Homo sapiens, UniProt P10721, L576P); conditions: 10 μM
Sequence of KIT(L576P) (P10721 26-976 L576P): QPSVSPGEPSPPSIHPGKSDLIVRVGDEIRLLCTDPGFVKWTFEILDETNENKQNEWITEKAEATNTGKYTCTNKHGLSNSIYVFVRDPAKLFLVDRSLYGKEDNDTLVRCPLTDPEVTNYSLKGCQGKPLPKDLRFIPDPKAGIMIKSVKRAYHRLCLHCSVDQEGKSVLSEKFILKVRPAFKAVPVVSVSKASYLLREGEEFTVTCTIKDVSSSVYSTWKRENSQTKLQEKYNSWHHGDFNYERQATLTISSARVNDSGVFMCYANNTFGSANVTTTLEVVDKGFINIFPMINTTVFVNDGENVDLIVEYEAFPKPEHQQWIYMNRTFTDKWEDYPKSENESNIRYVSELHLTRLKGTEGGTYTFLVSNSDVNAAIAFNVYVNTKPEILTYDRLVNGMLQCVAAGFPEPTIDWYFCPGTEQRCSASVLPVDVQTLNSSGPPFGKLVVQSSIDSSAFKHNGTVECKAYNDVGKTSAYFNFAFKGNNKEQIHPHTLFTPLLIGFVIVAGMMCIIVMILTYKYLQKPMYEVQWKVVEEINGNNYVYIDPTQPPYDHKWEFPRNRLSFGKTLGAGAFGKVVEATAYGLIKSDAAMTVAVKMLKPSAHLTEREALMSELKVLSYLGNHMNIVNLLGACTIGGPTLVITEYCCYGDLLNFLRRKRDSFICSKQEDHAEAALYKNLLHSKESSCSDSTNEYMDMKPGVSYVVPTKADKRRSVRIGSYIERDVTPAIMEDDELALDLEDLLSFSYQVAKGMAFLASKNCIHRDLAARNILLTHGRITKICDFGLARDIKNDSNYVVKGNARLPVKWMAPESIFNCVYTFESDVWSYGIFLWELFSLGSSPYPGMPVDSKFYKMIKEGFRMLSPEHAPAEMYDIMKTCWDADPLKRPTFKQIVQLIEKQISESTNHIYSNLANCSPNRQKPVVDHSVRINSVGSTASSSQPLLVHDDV

CSK [2] = biological target: T1, CSK; assay: biochemical; conditions: read-out: Percent control

Question: `C#Cc1cccc(Nc2c3cc(OCCOC)c(OCCOC)cc3nc[n+]2[Pt@SP2-2]([NH3+])([NH3+])[Cl])c1` [2a, cisplatin-erlotinib] was tested. Which Percent control (FGFR2) did it give?
Answer: 91%

Question: And the Percent control (CSK [1])?
Answer: 100%

Question: What about the Percent control (HCK) of the same compound?
Answer: 64%

Question: What about the Percent control (FLT1) of the same compound?
Answer: 88%

Question: And the Percent control (FLT3(N841I))?
Answer: 70

Question: What about the Percent control (FGFR3) of the same compound?
Answer: 89%

Question: And the Percent control (TIE2)?
Answer: 94%

Question: What about the Percent control (EPHA5) of the same compound?
Answer: 100%

Question: And the Percent control (ERBB2; ERBB2, 10 μM)?
Answer: 21%

Question: And the Percent control (RET)?
Answer: 46%

Question: And the Percent control (FLT3(R834Q))?
Answer: 80

Question: And the Percent control (FLT4)?
Answer: 90%

Question: What about the Percent control (KIT(L576P)) of the same compound?
Answer: 73%

Question: What does the source list for `COc1cc2c(Nc3ccc(Br)cc3F)[n+]([Pt-2]3([Cl])[NH2+]C4CCCCC4[NH2+]3)cnc2cc1OCC1CCN(C)CC1` (stereo not shown) [3b, oxaliplatin-vandetanib]?
Answer: Percent control (FGFR2): 67%; Percent control (CSK [1]): 41%; Percent control (FLT3(N841I)): 18; Percent control (TIE2): 49%; Percent control (EPHA5): 78%; Percent control (FLT3(R834Q)): 89; Percent control (FLT4): 14%; Percent control (KIT(L576P)): 2.2%

Question: Which Percent control (FGFR2) does the source give for `Cc1ccc(NC(=O)c2ccc(CN3CCN(C)CC3)cc2)cc1Nc1nccc(-c2cccnc2)[n+]1[Pt-2]1([Cl])[NH2+]C2CCCCC2[NH2+]1` (stereo not shown) [1b, oxaliplatin-imatinib] here?
Answer: 100%

Question: What about the Percent control (CSK [1]) of the same compound?
Answer: 100%

Question: And the Percent control (HCK)?
Answer: 82%

Question: What about the Percent control (FLT1) of the same compound?
Answer: 85%

Question: And the Percent control (FLT3(N841I); FLT3(N841I), 10 μM)?
Answer: 72%

Question: And the Percent control (FGFR3)?
Answer: 94%

Question: What about the Percent control (TIE2) of the same compound?
Answer: 94%

Question: What about the Percent control (EPHA5) of the same compound?
Answer: 100%

Question: And the Percent control (ERBB2; ERBB2, 10 μM)?
Answer: 82%

Question: And the Percent control (RET)?
Answer: 95%

Question: And the Percent control (FLT3(R834Q); FLT3(R834Q), 10 μM)?
Answer: 94%

Question: And the Percent control (FLT4)?
Answer: 99%

Question: What about the Percent control (KIT(L576P)) of the same compound?
Answer: 0.9%

Question: What does the source list for `COc1cc2c(Nc3ccc(Br)cc3F)ncnc2cc1OCC1CCN(C)CC1` [Vandetanib, reference compound]?
Answer: remaining activity at 10 µM (CSK [2]): 20%; remaining binding at 10 µM (ERBB2; ERBB2, 10 μM): 20.6%

Question: How did the Percent control (FGFR2) turn out when `Cc1ccc(NC(=O)c2ccc(CN3CCN(C)CC3)cc2)cc1Nc1nccc(-c2cccnc2)n1` [Imatinib, reference compound] was run?
Answer: 100%

Question: And the remaining activity at 10 µM (CSK [2])?
Answer: 100%

Question: And the Percent control (HCK)?
Answer: 100%

Question: What about the Percent control (FLT1) of the same compound?
Answer: 100%

Question: And the Percent control (FLT3(N841I); FLT3(N841I), 10 μM)?
Answer: 100%

Question: What about the Percent control (FGFR3) of the same compound?
Answer: 100%

Question: And the Percent control (TIE2)?
Answer: 100%

Question: And the Percent control (ERBB2; ERBB2, 10 μM)?
Answer: 100%

Question: And the Percent control (RET)?
Answer: 100%

Question: What about the Percent control (FLT3(R834Q); FLT3(R834Q), 10 μM) of the same compound?
Answer: 100%

Question: And the Percent control (FLT4)?
Answer: 100%

Question: How did the remaining activity at 10 µM (CSK [2]) turn out when `C#Cc1cccc(Nc2ncnc3cc(OCCOC)c(OCCOC)cc23)c1` [Erlotinib] was run?
Answer: 49%

Question: What about the remaining binding at 10 µM (ERBB2) of the same compound?
Answer: 22.5%
